Counter-ions that a name gives are not always drawn. Like-named read-outs stand apart in the source and are kept apart here.
Key:
[1] = system: hysterectomy patients; conditions: cited from earlier work
[2] = system: Caesarian section patients; conditions: […] or 0.5%, 20 ml, cited from earlier work
[3] = neonates; cited from earlier work
[4] = Clinical study: bupivacaine plasma pharmacokinetics after sponge implantation; assay type: in vivo, human
Procedure: Patients received three 5 cm×5 cm (×0.5 cm thick) sponges; one sponge divided between areas adjacent the surgical site (in this case, adjacent the location of the now-removed uterus), one sponge divided and placed across the incision in the wall of the body cavity (in this case, the peritoneum) and the final sponge divided and placed between the sheath and skin around the incision. Each sponge contained 50 mg of bupivacaine hydrochloride, giving a total dose of 150 mg per patient.
The patients were scheduled to receive a hysterectomy in the absence of uterine adenocarcinoma, cervical cancer, leiomyosarcoma or the suspicion of these cancers.

[5] = in vivo; cited from earlier work
[6] = system: plasma proteins; conditions: cited from earlier work
[7] = system: hysterectomy patients; conditions: cited from earlier work; for average postoperative morphine consumption: infiltration in deep and superficial layers of the wound after abdominal hysterectomy
[8] = mean, n=11, three sponges, 150 mg

CCCCN1CCCC[C@H]1C(=O)Nc1c(C)cccc1C [levobupivacaine]
incisional pain, deep pain and pain on coughing versus normal saline ([1]; […] infusion 12.5 mg/hr over 24 hours, 1-2 hours post surgery): significant reduction
Total ketobemidone (PCA narcotic) ([1]; […] infusion 12.5 mg/hr, 4-24 hour period): significantly reduced

CCCCN1CCCCC1C(=O)Nc1c(C)cccc1C (stereo not drawn) [bupivacaine, Bupivacaine]
duration of the effect on analgesic consumption ([2]; Caesarian section): 4 h
reduction in analgesic consumption ([2]; three studies on Caesarian section): 20-50%
Reported half-lives [3]: about 8 hours
Cmax ([4]; female, human, 150 mg, after implantation of three bupivacaine-collagen sponges, 150 mg, read-out: highest individual Cmax): 440 ng/mL
Cmax ([4]; female, human, 150 mg, after implantation of three bupivacaine-collagen sponges, 150 mg, read-out: mean Cmax): 220 ng/mL
known systemic toxicity level [5]: 2 to 4 µg/mL
bound to plasma proteins [6]: about 95%
reduction in analgesic consumption ([7]; […] solution 45 ml infiltrated subfascially and subcutaneously, Hannibal): 50%
average postoperative morphine consumption ([7]; Klein et al 2000): 54 mg
average postoperative morphine consumption ([7]; Ng et al 2002): 44 mg
analgesia compared with no treatment ([7]; subcutaneous infiltration of solution, Cobby 1997, Victory 1995): no improvement in analgesia

CCCCN1CCCCC1C(=O)Nc1c(C)cccc1C (stereo not drawn) [Bupivacaine Hydrochloride]
tlag ([4]; efficacy population n=12, three sponges, 150 mg bupivacaine HCl, column head Mean, marked *): 0.000 h
Cmax ([4]; female, human, 150 mg, mean, n=12, three sponges, 150 mg bupivacaine HCl, read-out: Cmax): 225 ng/mL
AUC(0-inf) ([4]; female, human, mean, n=11, three sponges, 150 mg): 6360 ng·h/mL
AUC(0-t) ([4]; female, human, mean, n=12, three sponges, 150 mg): 6530 ng·h/mL
Tmax ([4]; female, human, n=12, three sponges, 150 mg, column head Mean, marked *): 12 h
t1/2z [4, 8]: 10.092 h
λz [4, 8]: 0.07084 h⁻¹

CCN(CC)CC(=O)Nc1c(C)cccc1C [lidocaine]
reduction in pain scores and supplementary analgesic consumption ([7]; 500 mg aerosol subcutaneously, first 24 hours, Sinclair et al 1996): approximately 50%
